Laboratory results published in article PMC11541513, “Inhibitory Effects of Mangifera indica Secondary Metabolites and Their Synthetic Derivatives against SARS-CoV-2 M^pro and NS2B/NS3 (ZIKV and DENV-2)” (ACS Omega, 2024).
“And” between values parts separate entries of the source, which are not always exact repeats. Equal values may be shown once. Read-outs that look alike come from different tables or passages of the source.

Columns and labels:
SARS-CoV-2 M^pro = target: T1, SARS-CoV-2 M^pro (Severe acute respiratory syndrome coronavirus 2, UniProt P0DTD1); test: SARS-CoV-2 M^pro inhibition assay (chromogenic peptide substrate); type: biochemical; conditions: for obs.: observation at the end of the M^pro experiment; for inhibition at 200 µM: read-out: effect at 200 μM (%); for solubility during the biological testing: result in words, M^pro testing; for IC50: M^pro, substrate 200 μM
T1 construct: 30 μL of Mpro enzyme (Sigma-Aldrich) at a final concentration of 10 μg/mL; purchased Sigma-Aldrich
Method: Inhibitory effects against M^pro of all compounds were evaluated based on the experimental procedure provided by the manufacturer with some modifications.
[…] of chemicals dissolved in DMSO, with a final concentration of 200 μM, were put in triplicate to each well of a 96-well flat bottom microplate. After that, the plate was incubated for 10 min at room temperature with 30 μL of Mpro enzyme (Sigma-Aldrich) at a final concentration of 10 μg/mL diluted in buffer containing 25 mM HEPES (Sigma-Aldrich) and 0.2% of Tween-20 (Sigma-Aldrich). Furthermore, the chromogenic peptide substrate (Thr-Ser-Ala-Val-Leu-Gln-pNA, Sigma-Aldrich) was added in a volume of 10 μL to each well, at a final concentration of 200 μM and incubated for another 45 min at 37 °C. […] As directed by the manufacturer, with minor modifications, the experiment was carried out to ascertain the half-maximum inhibitory concentration (IC50) that may block the activity of the M^pro enzyme. […] The plate was then kept at room temperature for 10 min. Following this time interval, 10 μL of a 200 μM final concentration of chromogenic peptide substrate (Sigma-Aldrich) was added to each well, and the mixture was incubated for an additional 45 min at 37 °C.

DENV-2 NS2B/NS3 = DENV-2 NS2B/NS3 (Dengue virus type 2, UniProt P29990); test: DENV-2 NS2B/NS3 protease fluorogenic substrate assay; conditions: for inhibition at 100 µM: read-out: screening at 100 μM (%), DENV-2 NS2B/NS3, 100 μM compound
ZIKV NS2B/NS3 = target: T2, ZIKV NS2B/NS3 (Zika virus, UniProt Q32ZE1); test: ZIKV NS2B/NS3 protease fluorogenic substrate assay; type: biochemical; conditions: for inhibition at 20 µM: read-out: screening at 20 μM (%); for inhibition at 100 µM: read-out: screening at 100 μM (%); for mechanism of inhibition: ZIKV NS2B/NS3, IC50 at four substrate concentrations, Dixon plots
T2 construct: tested against the nonstructural protease of ZIKV (NS2B/NS3)

[1] = Cytotoxicity against Vero cells (resazurin); type: cell-based; conditions: African green monkey, read-out: CC50 ± SD (μM) Vero
Method: (§1) In a 96-well flat bottom microplate, THP-1 cells (12 × 10^4 cells/well) were seeded with 180 μL of RPMI 1640 medium (Sigma-Aldrich) without phenol red supplemented with 10% FBS (Sigma-Aldrich), 2 mM L-glutamine (Gibco), […] (Sigma-Aldrich), 10 U/mL penicillin (Gibco), and 10 μg/mL streptomycin (Gibco) in the presence of 100 ng/mL of phorbol-12-myristate-13-acetate (PMA) (Sigma-Aldrich). The microplate was then incubated at 37 °C in a 5% CO2 atmosphere for 72 h. Vero cells ([…]) were seeded in 180 μL of RPMI 1640 media (Sigma-Aldrich), which was then supplemented with 10% FBS (Sigma-Aldrich), 10 U/mL penicillin (Gibco), and 10 μg/mL streptomycin (Gibco). The cells were then incubated for 24 h at 37 °C in a 5% CO2 environment. Each target chemical, diluted in RPMI-1640 media (Sigma-Aldrich) without FBS, at doses of 150, 50, 16.7, and 5.6 μM, was applied in 20 μL to each of the two cell lines. The positive and negative controls were 50 and 0.3% DMSO (Sigma-Aldrich), respectively. The plates were incubated in an environment containing 5% CO2 for 67 h at 37 °C. Next, 20 μL of resazurin (250 μg/mL) from Sigma-Aldrich was added, and the mixture was incubated at 37 °C for 5 h. The microplate was measured using a Tecan Model Infinite M200 spectrophotometer at 530 and 590 nm in wavelengths. Every experiment was run three times.[23],[24]

[2] = Cytotoxicity against THP-1 cells (resazurin); type: cell-based; conditions: human, THP-1 cells differentiated with PMA, read-out: CC50 ± SD (μM) THP-1
Method: as §1

[3] = inhibitory percentage against M^pro at 200 μM, NA: no activity
[4] = ZIKV NS2B/NS3, substrate 100 μM, read-out: IC50
[5] = IC50 at substrate 50 μM, binding mechanism study, Boc-Gly-Arg-Arg-AMC 50 μM
[6] = IC50 at substrate 100 μM, binding mechanism study, Boc-Gly-Arg-Arg-AMC 100 μM
[7] = IC50 at substrate 150 μM, binding mechanism study, Boc-Gly-Arg-Arg-AMC 150 μM
[8] = IC50 at substrate 200 μM, binding mechanism study, Boc-Gly-Arg-Arg-AMC 200 μM

T2 sequence (Q32ZE1 1421-1460): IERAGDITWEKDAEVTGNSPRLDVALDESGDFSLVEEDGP
T2 sequence (Q32ZE1 1499-1676): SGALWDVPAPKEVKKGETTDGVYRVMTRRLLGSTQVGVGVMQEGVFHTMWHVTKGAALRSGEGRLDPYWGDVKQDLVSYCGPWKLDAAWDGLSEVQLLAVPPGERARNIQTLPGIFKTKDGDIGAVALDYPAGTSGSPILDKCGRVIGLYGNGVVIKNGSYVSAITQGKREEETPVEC
Chain of DENV-2 NS2B/NS3 (P29990 1398-1437): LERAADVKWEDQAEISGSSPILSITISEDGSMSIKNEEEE
Chain of DENV-2 NS2B/NS3 (P29990 1476-1653): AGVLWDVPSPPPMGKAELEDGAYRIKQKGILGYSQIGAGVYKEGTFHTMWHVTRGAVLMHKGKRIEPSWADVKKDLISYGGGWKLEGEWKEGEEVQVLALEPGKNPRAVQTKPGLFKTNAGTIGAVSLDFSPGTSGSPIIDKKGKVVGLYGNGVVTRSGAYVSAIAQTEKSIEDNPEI

| Compound | inhibition at 100 µM (DENV-2 NS2B/NS3) | inhibition at 20 µM (ZIKV NS2B/NS3; ZIKV NS2B/NS3, 20 μM compound) | inhibition at 100 µM (ZIKV NS2B/NS3; ZIKV NS2B/NS3, 100 μM compound) | IC50 (ZIKV NS2B/NS3; [4]) | inhibition at 200 µM (SARS-CoV-2 M^pro; [3]) | CC50 at 67 h [1] | CC50 at 67 h [2] | IC50 (SARS-CoV-2 M^pro) | other results |
| --- | --- | --- | --- | --- | --- | --- | --- | --- | --- |
| CC1(C)CC[C@]2(C)CC=C3[C@]4(C)CC[C@H]5C(C)(C)C(=O)CC[C@]5(C)[C@H]4CC[C@@]3(C)[C@@H]2C1 [Compound 1a, taraxerone] |  |  |  |  |  |  |  |  | effect at 200 μM (%) (SARS-CoV-2 M^pro; [3]): 84.0%; obs. (SARS-CoV-2 M^pro): SP^#; inhibition at 200 µM (SARS-CoV-2 M^pro): 84%; solubility during the biological testing (SARS-CoV-2 M^pro): low solubility |
| CCC=CCCOC(=O)c1cc(O)c(O)c(O)c1 [Compound 2k] | 28 ± 4% | 86 ± 0.8% | 100 ± 0.1% | 6.1 ± 0.6 µM | 41.9% |  |  |  |  |
| CC(C)=CCCC(C)CCOC(=O)c1cc(O)c(O)c(O)c1 (centres unmarked) [Compound 2g] | 28 ± 2% |  | 97 ± 1.1% | 1.9 ± 0.1 µM | 73.3% | 82.1 ± 31.5 µM | 32.1 ± 3.4 µM | 88.7 ± 11.6 µM | IC50 (ZIKV NS2B/NS3; [5]): 2.93 µM; IC50 (ZIKV NS2B/NS3; [6]): 2.48 µM; IC50 (ZIKV NS2B/NS3; [7]): 2.96 µM; IC50 (ZIKV NS2B/NS3; [8]): 2.03 µM; screening at 20 μM (%) (ZIKV NS2B/NS3; ZIKV NS2B/NS3, 20 μM compound): 99 ± 0.4%; mechanism of inhibition (ZIKV NS2B/NS3): noncompetitive; inhibition at 20 µM (ZIKV NS2B/NS3): 99% |
| CC(C)CCOC(=O)c1cc(O)c(O)c(O)c1 [Compound 2e] | > 50% | 72 ± 3.1% | 99 ± 0.2% | 13 ± 0.4 µM | 99.5% | > 150 µM | 47 ± 6.5 µM | 2.6 ± 1 µM |  |
| C=CC(C)(CCC=C(C)C)OC(=O)c1cc(O)c(O)c(O)c1 (centres unmarked) [Compound 2i] |  |  |  |  | 80% | > 150 µM | 98.9 ± 5 µM | 4 ± 0.9 µM |  |
| CC(C)=CCCC(C)=CCOC(=O)c1cc(O)c(O)c(O)c1 [Compound 2f] | > 50% |  | 99 ± 0.4% | 2.7 ± 0.3 µM | 97% | 48.4 ± 13.2 µM | 72.1 ± 7.3 µM | 9.5 ± 1 µM | IC50 (ZIKV NS2B/NS3; [5]): 3.2 µM; IC50 (ZIKV NS2B/NS3; [6]): 3.04 µM; IC50 (ZIKV NS2B/NS3; [7]): 3.6 µM and 3.61 µM; IC50 (ZIKV NS2B/NS3; [8]): 3.78 µM; screening at 20 μM (%) (ZIKV NS2B/NS3; ZIKV NS2B/NS3, 20 μM compound): 98 ± 1.1%; mechanism of inhibition (ZIKV NS2B/NS3): noncompetitive; inhibition at 20 µM (ZIKV NS2B/NS3): 98% |
| C=CCOC(=O)c1cc(O)c(O)c(O)c1 [Compound 2d] | 29 ± 1% | 25 ± 2.2% | 53 ± 1.7% | 92.5 ± 3.1 µM | 94.3% | > 150 µM | 28.5 ± 3.2 µM | 12.4 ± 2.4 µM |  |
| methyl 3,5-dihydroxy-4-methoxybenzoate [Compound 2m] |  |  |  |  |  |  |  |  | effect at 200 μM (%) (SARS-CoV-2 M^pro; [3]): 44.2% |
| C=CCCOC(=O)c1cc(O)c(O)c(O)c1 [Compound 2c] | 18 ± 3% | 25 ± 2.6% | 48 ± 2.2% | > 100 µM | 80.4% | > 150 µM | 38.8 ± 4.4 µM | 35.8 ± 4.5 µM |  |
| COC(=O)c1cc(O)c(O)c(O)c1 [Compound 2, methyl gallate] |  |  |  |  |  | > 150 µM | 52.9 ± 19.2 µM | 4.5 ± 1.8 µM | effect at 200 μM (%) (SARS-CoV-2 M^pro; [3]): 68.0%; inhibition at 200 µM (SARS-CoV-2 M^pro): 68% |
| CC(C)OC(=O)c1cc(O)c(O)c(O)c1 [Compound 2a] | 48 ± 1% | 51 ± 3.4% | 98 ± 0.5% | 19.8 ± 0.5 µM | 78% | > 150 µM | 78.5 ± 8.1 µM | 20.7 ± 8.2 µM | IC50 (DENV-2 NS2B/NS3; IC50 (μM), DENV-2 NS2B/NS3, substrate 100 μM): > 100 µM |
| O=C(OCCc1ccccc1)c1cc(O)c(O)c(O)c1 [Compound 2j] | 22 ± 1% | 50 ± 3.8% | 82 ± 2.7% | 19.7 ± 2.1 µM | 60.8% | > 150 µM | 22.9 ± 3.2 µM |  | obs. (SARS-CoV-2 M^pro): SP^#; solubility during the biological testing (SARS-CoV-2 M^pro): solubility problems |
| CC1(C)CC[C@]2(C)CC=C3[C@]4(C)CC[C@H]5C(C)(C)[C@@H](O)CC[C@]5(C)[C@H]4CC[C@@]3(C)[C@@H]2C1 [Compound 1, taraxerol] |  |  |  |  |  |  |  |  | effect at 200 μM (%) (SARS-CoV-2 M^pro; [3]): 48.0%; inhibition at 200 µM (SARS-CoV-2 M^pro): 48% |
| O=c1c2ccccc2[se]n1-c1ccccc1 [Ebselen, reference compound] |  |  |  |  |  |  |  |  | effect (%) of positive control (SARS-CoV-2 M^pro; Ebselen at 10 μM): 90% |
| CCCCCCCCCCCCCCOC(=O)c1cc(O)c(O)c(O)c1 [Compound 2b] | 21 ± 3% |  |  | 84.9 ± 9 µM |  |  |  |  | inhibition at 20 µM (ZIKV NS2B/NS3): 64 ± 2.5%; inhibition at 100 µM (ZIKV NS2B/NS3): 55 ± 2.3% |
| COC(=O)c1cc(OC)c(OC)c(OC)c1 [Compound 2l, Methyl 3,4,5-trimethoxybenzoate] |  |  |  |  | 55.5% | > 150 µM | > 150 µM |  | obs. (SARS-CoV-2 M^pro): SP^#; solubility during the biological testing (SARS-CoV-2 M^pro): solubility problems |
| O=C(OCCCc1ccccc1)c1cc(O)c(O)c(O)c1 [Compound 2h] | 20 ± 1% |  | 99 ± 0.2% | 4.8 ± 0.5 µM | 45.1% |  |  |  | screening at 20 μM (%) (ZIKV NS2B/NS3; ZIKV NS2B/NS3, 20 μM compound): 96 ± 0.4%; inhibition at 20 µM (ZIKV NS2B/NS3): 96% |
